This note sets out measurements from article PMC9705314, “Characterization of a new potent and long-lasting single chain peptide agonist of RXFP1 in cells and in vivo translational models” (Scientific Reports, 2022).

The target of one experiment is T1, hRXFP1 (S69P) (Homo sapiens, UniProt Q9HBX9, S69P).
T1 sequence (Q9HBX9 1-757 S69P): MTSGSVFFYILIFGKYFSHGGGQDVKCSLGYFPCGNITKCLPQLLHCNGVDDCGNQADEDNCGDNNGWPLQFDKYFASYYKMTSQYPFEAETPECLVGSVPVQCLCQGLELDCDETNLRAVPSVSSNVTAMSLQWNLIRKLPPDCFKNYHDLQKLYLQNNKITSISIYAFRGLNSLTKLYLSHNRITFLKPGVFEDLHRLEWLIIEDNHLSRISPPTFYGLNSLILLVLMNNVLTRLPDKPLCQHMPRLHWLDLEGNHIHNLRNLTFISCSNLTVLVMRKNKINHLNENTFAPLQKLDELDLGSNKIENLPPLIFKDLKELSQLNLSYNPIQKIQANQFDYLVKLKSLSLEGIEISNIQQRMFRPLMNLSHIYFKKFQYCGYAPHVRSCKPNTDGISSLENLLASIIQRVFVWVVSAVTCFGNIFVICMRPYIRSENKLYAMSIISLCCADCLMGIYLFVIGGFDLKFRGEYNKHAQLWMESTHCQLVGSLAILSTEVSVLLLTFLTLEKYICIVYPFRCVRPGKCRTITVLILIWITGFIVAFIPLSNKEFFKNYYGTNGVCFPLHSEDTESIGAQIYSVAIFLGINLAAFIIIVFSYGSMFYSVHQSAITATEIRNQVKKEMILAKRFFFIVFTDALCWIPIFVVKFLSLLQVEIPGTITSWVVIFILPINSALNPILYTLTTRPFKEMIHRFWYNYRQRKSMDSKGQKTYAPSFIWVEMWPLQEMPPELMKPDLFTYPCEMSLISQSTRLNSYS
Description: cAMP production in HEK cells expressing hRXFP1 (S69P). The format is cell-based. To be noted: hRXFP1 S69P mutant, n = 4 experiments in duplicate. Here is the method: (§1) HEK cells were stably transduced with lentiviral constructs (Vectalys, MOI 20, batches rV2.1A1.5057 B, rV2.1A1.5056 B and rV2.1A1.5059 B) containing a bicistronic vectors encoding hRXFP1 (S69P) or hRXFP1 (F76V) or hRXFP1 (S69P/F76V) under the EF1 promoter followed by an internal ribosome entry site (IRES) elements to express the neomycin antibiotic resistance gene for selection with 500 μg/mL Geneticin (Invitrogen, #10131-019). Three days post transduction, HEK cells were grown in the presence of Genetecin. Positive individual clones were selected and amplified, and cAMP readout (nM) was used as described for other cell types at a cell density of 8000 cells/well.

The target in another experiment is T2, hRXFP1 (S69P/F76V) (Homo sapiens, UniProt Q9HBX9, F76V/S69P).
T2 sequence (Q9HBX9 1-757 S69P/F76V): T1 sequence (Q9HBX9 1-757 S69P) with F76V
The experiment is described as follows: cAMP production in HEK cells expressing hRXFP1 (S69P/F76V). The format is cell-based. To be noted: hRXFP1 F76V-S69P dual mutant, n = 4 experiments in duplicate. How it is done:
as §1

Residue numbers refer to the chain shown, from its start.

As to relaxin, the “cAMP response (efficacy)” value on hRXFP1 (S69P) and at hRXFP1 (S69P/F76V) was “reduced in all RXFP1 mutants compared to the wild type construct” throughout.
